Measured values from patent publication US20090061022A1, “Pharmaceutical composition comprising arsenite for the treatment of malignancy” (priority 2004, published 2009).
“And” between values parts separate entries of the source, which are not always exact repeats. Equal entries are not always repeated.

Key:
RXF 944LX [1] = assay: Dose finding study in human renal cancer model RXF 944LX in nude mice (i.p. days 0, 7, 14); conditions: for BW loss % (day) / Drug-related deaths / Rating / SGD (specific growth delay) / T/C %: days 0, 7, 14
Source text: In a dose finding study, the potential anticancer activity of sodium meta-arsenite and arsenic acid sodium salt versus arsenic trioxide was examined in the human renal cancer model, RXF 944LX.
(§1) Cancer fragments (1-2 mm in diameter), obtained from xenografts in serial passage in nude mice, were implanted subcutaneously (S.C.) in a flank of male NRMI nude mice (one fragment per mouse). Mice with appropriate cancer volumes (5-7 mm in diameter) were randomly distributed to treatment and control groups (4 mice/group). The start of treatment was day 0. Cancer volume and body weights were measured at least twice per week.
1) Sodium meta-arsenite (3, 10, 30 mg/kg/day), 2) Arsenic acid sodium salt (3, 10, 30 mg/kg/day) and 3) Arsenic trioxide (3, 10, 30 mg/kg/day) were administered intraperitoneally (i.p.) once daily on days 0, 7 and 14.
Stock solution of sodium meta-arsenite and arsenic acid sodium salt (3 mg/ml) were prepared in 5% (w/v) dextrose solution, respectively, to minimize acute arsenic toxicity. For arsenic trioxide, 9 mg of arsenic trioxide was dissolved in 1M NaOH (75 μl) followed by mixing with sterile aqua injectabilia (2175 μl) and sterile 20% (w/v) dextrose in water (500 μl). Further dilution to the desired concentration was done with a 5% dextrose solution to give a final concentration of 3 mg/ml.
(§2) The cancer volume of each animal was determined by two-dimensional measurement using calipers. The volume was calculated according to the formula: (a×b^2)×0.5; wherein a and b represent two perpendicular diameters in which a (length) is the larger diameter and b (width) the smaller diameter.
(§3) Relative cancer volumes (RCV) were calculated for each individual cancer by dividing the cancer volume on day X by the cancer volume on day 0 multiplied by 100%. The cancer volume of a treatment group was expressed as the median RCV of all mice of the group. Median RCV values were used for drawing growth curves and treatment evaluation. Optimal cancer growth inhibition at a particular day within the treatment period was calculated from the median RCV values of the treated (T) versus the controlled (C) group multiplied by 100%. A T/C value<50% was considered as anti-cancer activity.

RXF 944LX [2] = assay: Anticancer activity in RXF 944LX cancer bearing nude mice, intermittent and daily schedules; conditions: for MTD: i.p., RXF 944LX
Procedure: as §1, §2, §3
In the experiment with renal cancer RXF 944LX, the anticancer activity of the compounds was explored using two administration schedules; 1) intermittent schedule of 4 days×3, and 2) a daily schedule for 2 weeks (days 0-4, 7-11).
The dose levels chosen for sodium meta-arsenite and arsenic acid sodium salt in these schedules were based on the experience in the 1st experiment. Additional small dose finding studies were executed.

[3] = Maximum tolerated dose assessment after daily oral gavages for 14 days in the mouse; format: in vivo, CD-1 mice
Procedure: The objective of this oral toxicity study was to establish a MTD after repeated administration of sodium meta-arsenite to mice.
Ampoules of sodium meta-arsenite (dissolved in 10% (w/v) glucose in water) in concentrations of 1, 1.6, 2.6, 4.1 and 6.5 mg/ml were stored in a refrigerator in the dark. Based on the previous study, the following doses were selected: 10, 16, 26, and 41 and 65 mg/kg/day. Each dose was administered daily by oral gavages to groups of 4 male and 4 CD-1 mice for 14 days, followed by a 14-day recovery period.
Clinical signs were evaluated daily and body weights were recorded twice weekly. Scheduled termination was performed on day 29 (after 14 days of recovery). Macroscopic examination was performed on all animals.

[4] = test system: panel of forty-one (41) human cancer cell lines; assay: Cytotoxic activity, panel of forty-one (41) human cancer cell lines
Source text: In a next study, the cytotoxic activity of sodium meta-arsenite was head-to-head compared with arsenic trioxide in panels loaded with 41 cancer cell lines from ten human cancers.

[5] = 10 mg/kg i.p., listed as sodium meta-arsenite
[6] = 8 mg/kg i.p., days 0-4, 7, 14-18
[7] = panel of 41 human cancer cell lines

## O=[As][O-].[Na+] [Sodium meta-arsenite, sodium meta-arsenite]
RXF 944LX [1]; 3 mg/kg i.p.
  BW loss % (day): +6.8 (21) %
  Drug-related deaths: 0/4
  Rating: + (+T/C < 50)
  SGD (specific growth delay): 0.4
  T/C %: 19%
RXF 944LX [1]; 10 mg/kg i.p.
  BW loss % (day): +8.7 (21) %
  Drug-related deaths: 0/4
  Rating: − (−T/C ≧ 50%)
  SGD (specific growth delay): −0.1
  T/C %: 51%
RXF 944LX [1]; [5]
  BW loss % (day): no lethality or body weight loss was observed
  Drug-related deaths: no lethality or body weight loss was observed
RXF 944LX [1]; 30 mg/kg i.p.
  Drug-related deaths: 4/4
RXF 944LX [1]; 30 mg/kg i.p., listed as sodium meta-arsenite
  Drug-related deaths: died within a few days after the first injection
RXF 944LX [1]; i.p. once daily on days 0, 7 and 14, RXF 944LX bearing nude mice
  Maximum Tolerated Dose (MTD): 10 mg/kg/day
RXF 944LX [2]; 4 mg/kg i.p., days 0-4, 7-11
  BW loss % (day): −3 (7) %
  Drug-related deaths: 2/6
  SGD (specific growth delay): 0.1
  T/C %: 55%
RXF 944LX [2]; 5 mg/kg i.p., days 0, 4, 8
  BW loss % (day): −2 (3) %
  Drug-related deaths: 0/6
  SGD (specific growth delay): −0.5
  T/C %: 84%
RXF 944LX [2]; [6]
  BW loss % (day): −14 (10) %
  Drug-related deaths: 3/6
RXF 944LX [2]; 10 mg/kg i.p., days 0, 4, 8
  Drug-related deaths: 5/6
RXF 944LX [2]; daily schedule (days 0-4, 7-11)
  MTD: 4 mg/kg/day
RXF 944LX [2]; intermittent schedule (4 days×3)
  MTD: 5 mg/kg/day
[3]; 10 mg/kg/day oral gavage 14 days, mouse
  Findings: No findings were noted
[3]; 16 mg/kg/day oral gavage 14 days, mouse
  Findings: Piloerection on the head was noted for one male on days 4 and 5
[3]; 26 mg/kg/day oral gavage 14 days, mouse
  Findings (mortality): No unscheduled mortality occurred
[3]; 41 mg/kg/day oral gavage 14 days, mouse
  Findings (mortality): All males died on days 2-4 and all females on days 2-7
[3]; 65 mg/kg/day oral gavage 14 days, mouse
  Findings (mortality): All animals died on days 2 or 3, all females died on day 1 or 2
[3]; mice, males and females, oral once daily 14 days, calculated
  MTD (or LD10 value): 32 mg/kg/day
[3]; mouse, oral once daily 14 days
  MTD: 96 mg/m^2/day
[4]; 0.01 μg/ml and 0.001 μg/ml
  activity in panel of 41: showed no activity
[4]; 0.1 μg/ml
  cancer cell lines that responded, out of forty one (41): 16
[4]; 1 μg/ml, more than 70% growth inhibition
  cancer cell lines that responded, percent of 41: 80%
[4]; 10 μg/ml
  cancer cell lines in which active, percent of 41: 100%
[4]; breast (mammary) cancer cell lines
  selectivity (individual IC70<½ mean IC70), fraction of cell lines: ¾
[4]; conclusion of in vitro data
  fold more potent than arsenic trioxide: at least 10 fold
[4]; leukemia cell lines
  selectivity (individual IC70<½ mean IC70), fraction of cell lines: ¾
[4]; melanoma cell lines
  selectivity (individual IC70<½ mean IC70), fraction of cell lines: 4/7
[4]; [7]
  Mean IC50: 0.129 µg/mL
  Mean IC70: 0.329 μg/ml and 2.53 μM
  Mean IC90: 1.691 µg/mL
[4]; panel of 41 human cancer cell lines, listed as sodium meta-arsenite
  Mean IC70: 0.329 μg/ml and 2.53 μM
[4]; read-out: Mean IC50, panel of 41 human cancer cell lines
  IC50: 0.99 µM
[4]; read-out: Mean IC90, panel of 41 human cancer cell lines
  IC90: 13 µM
